From patent US7655677B2, “Composition and method for controlling house insect pest” (priority 2002, dated 2010)

Experiments:
Assay type in all cases: in vivo
[1] = tested on: Reticulitermes speratus; assay: Test Example 9: treated filter paper in acrylic cup, termite mortality 5 and 20 days later; conditions: 1000 ppm
Method: A filter paper having a diameter of 80 mm was placed in a cylindrical cup made of acrylic resin having a diameter of 80 mm and a height of 60 mm (i.e. a cup having a hole with a diameter of 10 mm formed in the bottom and having hard plaster (Dental Stone) set at the bottom in a thickness of 10 mm), and 1 ml of a solution containing a sample compound in a predetermined concentration, was dropped thereon. Then, ten termite workers and one termite soldier (Reticulitermes speratus) were released thereon. The cup was placed in a container having wet cotton laid over the bottom, and the container was maintained at room temperature of 25° C., and 5 days later and 20 days later, the mortality of termites in the cup was examined.

[2] = tested on: Coptotermes formosanus; assay: Test Example 18: dust-coated termite workers mixed with non-treated termites, mortality with time; conditions: 0.5% dust; for Mortality TS (Termite soldiers): 10 non-treated soldiers; for Mortality TW (Termite workers): 15 treated + 10 non-treated workers
Method: 1 mg of each dust prepared in the same manner as in Test Example 17, was uniformly dispersed in a small size glass Petri dish with a diameter of 45 mm, and 15 termite workers (Coptotermes formosanus) were released and treated for dust coating. The treated termite workers were put into a cylindrical cup made of acrylic resin (i.e. a cup having a hole with a diameter of 10 mm formed in the bottom and having hard plaster (Dental Stone) set at the bottom in a thickness of 10 mm) containing a bait log, together with 10 non-treated termite workers and 10 non-treated termite soldiers. The cup was placed in a container having wet cotton laid over the bottom, and the container was maintained at room temperature of 25° C., whereby the number of dead termites in the cup was examined as the time passed, and the mortality was calculated by the following formula.
Mortality of termite workers (%)=(Number of dead termite workers/15 treated termite workers+10 non-treated termite workers)×100
Mortality of termite soldiers (%) (Number of dead termite soldiers/10 non-treated termite soldiers)×100

[3] = tested on: Coptotermes formosanus; assay: Test Example 19: gel coated on Japanese red pine wood block, termite mortality with time
From the text: A gel prepared by uniformity mixing 0.2 part by weight of […], 20 parts by weight of sorbitol, 3.5 parts by weight of cross-linked product of a starch/sodium acrylate copolymer, a predetermined amount of a sample compound and a predetermined amount of water, was coated in an amount of 110 g/m^2 on a dried rectangular parallelpiped wood block of Japanese red pine of 20 mm (L)×10 mm (R)×10 mm (T). This test specimen was put into a cylindrical cup made of acrylic resin (i.e. a cup having a hole with a diameter of 10 mm in the bottom and having hard plaster (Dental Stone) set at the bottom in a thickness of 10 mm), and 20 termite workers (Coptotermes formosanus) were released thereon. The cup was placed in a container having wet cotton laid over the bottom, and the container was maintained at room temperature of 25° C., whereby the number of dead termites in the cup was examined as the time passed, and the mortality was calculated.

SMILES: CC(=NN=C(Cc1ccc(C(F)(F)F)cc1)c1ccc(F)cc1)N(C)C [Compound No. II-2, [4′-fluoro-2-(4-trifluoromethylphenyl)acetophenone]N′-[1-(dimethylamino)ethylidene]hydrazone]
- Mortality ([1]; 5 Days later): 100%
- Mortality ([1]; 20 Days later): 100%
- Mortality TS (Termite soldiers) ([2]; 1 Day later): 0%
- Mortality TW (Termite workers) ([2]; 1 Day later): 0%
- Mortality TS (Termite soldiers) ([2]; 8 Days later): 0%
- Mortality TW (Termite workers) ([2]; 8 Days later): 4%
- Mortality TS (Termite soldiers) ([2]; 15 Days later): 40%
- Mortality TW (Termite workers) ([2]; 15 Days later): 52%
- Mortality TS (Termite soldiers) ([2]; 19 Days later): 100%
- Mortality TW (Termite workers) ([2]; 19 Days later): 100%
- Mortality ([3]; gel 0.005%, 2 Days later): 0%
- Mortality ([3]; gel 0.005%, 6 Days later): 0%
- Mortality ([3]; gel 0.005%, 12 Days later): 10%
- Mortality ([3]; gel 0.005%, 23 Days later): 30%
- Mortality ([3]; gel 0.005%, 34 Days later): 60%
- Mortality ([3]; gel 0.01%, 2 Days later): 0%
- Mortality ([3]; gel 0.01%, 6 Days later): 0%
- Mortality ([3]; gel 0.01%, 12 Days later): 10%
- Mortality ([3]; gel 0.01%, 23 Days later): 60%
- Mortality ([3]; gel 0.01%, 34 Days later): 100%
- Mortality ([3]; gel 0.05%, 2 Days later): 0%
- Mortality ([3]; gel 0.05%, 6 Days later): 0%
- Mortality ([3]; gel 0.05%, 12 Days later): 100%
- Mortality ([3]; gel 0.05%, 23 Days later): 100%
- Mortality ([3]; gel 0.05%, 34 Days later): 100%
- Mortality ([3]; gel 0.1%, 2 Days later): 0%
- Mortality ([3]; gel 0.1%, 6 Days later): 60%
- Mortality ([3]; gel 0.1%, 12 Days later): 100%
- Mortality ([3]; gel 0.1%, 23 Days later): 100%
- Mortality ([3]; gel 0.1%, 34 Days later): 100%
